From article PMC7672424 (Nucleic Acids Research, 2020)

Columns and labels:
TTA = settings: CD melting; 5 µM DNA, 20 µM compound; 10 mM Tris-HCl, 50 mM KCl, pH 7.4
Protocol: CD studies were performed on a Chirascan circular dichroism spectrophotometer (Jasco, Easton, MD, USA). A quartz cuvette with a 1 mm path length was used to record the spectra over a wavelength range of 220–320 nm with a 1 nm bandwidth. All the samples were prepared in buffer containing 10 mM Tris–HCl pH 7.4, 100 mM KCl. To ensure the concentrations of G-quadruplex units to be 20 μM, multiple G-quadruplexes forming oligonucleotides with different concentrations were used (TTA (G1) 20 μM, TTA45 (G2) 10 μM, TTA69 (G3) 6.67 μM, TTA93 (G4) 5 μM, TTA117 (G5) 4 μM, TTA141 (G6) 3.33 μM). The DNA samples were heated at 95°C for 5 min and cooled down slowly to room temperature. […] Melting curves were measured at 295 nm and the range of temperature was 4–95°C.
a Melting temperature (T ) of 5 µM DNA samples with and without 20 µM BMPQ-1 analogs in 10 mM Tris-HCl
buffer (50 mM KCl, pH 7.4) was determined by circular dichroism spectroscopy, and ΔTm/°C were derived by

[1] = test system: Tel26 (DNA, G4) AAAGGGTTAGGGTTAGGGTTAGGGAA; assay: CD titration; settings: 100 mM K+; 10 mM Tris-HCl pH 7.4; 265 nm peak decreased
[2] = test system: VEGF (DNA, G4) GGGAGGGTTGGGGTGGG; assay: ligand fluorescence enhancement; settings: 100 mM K+ (KCl) plus potassium phosphate; 10 mM K2HPO4/KH2PO4 pH 7.0; 3 µM compound, 4 µM DNA; enhancement below 3-fold
A549 = assay: Cell cytotoxicity assay (CCK8); type: cell-based, human; settings: Homo sapiens, A549; CCK8, 48 h treatment
Protocol: (§1) The cell growth effect of BMPQ-1 against different cell lines were tested via measuring the quantity of living cells using the Cell Counting Kit-8 (CCK8) (DOJINDO, Japan) according to the instruction. Cells were seeded in a 96-well plate (5 × 10^3 cells/well) and grown for 24 h for attachment. Then the cells were treated with various concentrations of BMPQ-1 and incubated at 37°C with 5% CO2 for 48 h. After incubation, the old medium was discarded followed by adding fresh medium containing 10% FBS in DMEM. Then 100 μl CCK-8 (10% in grow medium) was added into each well, and the cells were further incubated for 1 h. The optical density (OD) was detected at 450 nm by an automated microplate reader (Bio-Rad). The IC50 values were derived from the curves of the mean percentage of survival against the drug concentration. All the experiments were performed in triplicate.
(§2) A Cell Counting Kit-8 (CCK8) (DOJINDO, Japan) was employed to evaluate the cytotoxicity of BMPQ-1 on human alveolar basal epithelial cancer cell line (A549), human hepatocellular carcinoma cancer cell line (HepG2), human gastric cancer cell line (MGC-803), human colon adenocarcinoma (HT29), human normal liver Cells (HL-7702).

MGC-803 = assay: Cell cytotoxicity assay (CCK8); type: cell-based, human; settings: Homo sapiens, MGC-803; CCK8, 48 h treatment
Protocol: as §1, §2

HepG2 = assay: Cell cytotoxicity assay (CCK8); type: cell-based, human; settings: Homo sapiens, HepG2; CCK8, 48 h treatment
Protocol: as §1, §2

HT29 = assay: Cell cytotoxicity assay (CCK8); type: cell-based, human; settings: Homo sapiens, HT-29; CCK8, 48 h treatment
Protocol: as §1, §2

γH2AX foci in A549 cells = assay: Immunofluorescence of γH2AX and TRF2 foci; type: cell-based, human; settings: A549, 1.5 μM, 24 h
Protocol: The cells (5 × 10^4 cells) were seeded on 35-mm glass-bottomed dishes and grown for 24 h for attachment. Then old medium was replaced by fresh DMEM containing 1.5 μM BMPQ-1 and incubated for 24 h. After washed three times with PBS buffer, the cells were fixed in 4% paraformaldehyde/PBS for 15 min and then permeabilized with 0.3% Triton-X 100/PBS at 37°C for 20 min. Then the cells were blocked with 5% BSA/PBS at 37°C for 1 h. Finally, the cells were incubated with primary antibodies at 37°C for 3 h. After that, the cells were washed six times with blocking buffer, and were then incubated with secondary antibodies at 37°C for 3 h. Finally, the cells were washed six times with PBS buffer again. The digital images were recorded using a confocal laser scanning microscopy (Olympus FV1000) and analyzed with ImageJ software. One hundred nuclei were counted in each group. […]
Figure 2. […] (B) Quantification of the number of γH2AX foci per nucleus in A549 cells treated with or without BMPQ-1. (C) Quantification of the colocalization of γH2AX and TRF2 per nucleus in A549 cells treated with or without BMPQ-1. […] (E) Quantification of the number of BG4 foci per nucleus in A549 cells treated with or without BMPQ-1. (F) Quantification of the colocalized BG4 and TRF2 per nucleus in A549 cells treated with or without BMPQ-1.

[3] = test system: dimeric G-quadruplexes (TTA45); assay: Fluorescence response of BMPQ-1 to DNA; type: binding, human; settings: 3 μM BMPQ-1, 2 μM TTA45, λex = 395 nm
Protocol: Figure 1. (A) Structure of BMPQ-1. (B) Fluorescence spectra of BMPQ-1 at λex = 395 nm in the absence or presence of dimeric G-quadruplexes (TTA45), monomeric G-quadruplexes (c-KIT1, c-KIT2, c-MYCPu22, TTA, VEGF, TBA), trinucleotide DNA (CGG12), duplex DNA (19AT) and single-stranded DNA (dT30). The concentration of BMPQ-1 was 3 μM. The concentration of TTA45 was 2 μM and DNAs with other structures were 4 μM. (C) Fluorescence spectra of 6 μM BMPQ-1 at λex = 395 nm in the absence or presence of 2 μM telomeric G-quadruplexes. Oligonucleotide samples were prepared in solution with 10 mM K2HPO4/KH2PO4, pH 7.0, 100 mM KCl. (D) Effect of BMPQ-1 on the CD spectra of 10 μM TTA45 in 10 mM Tris-HCl buffer (pH 7.4) containing 100 mM KCl.
G-quadruplex forming oligonucleotides were annealed in the buffer (10 mM K2HPO4/KH2PO4 pH 7.0, 100 mM KCl) by heating to 95°C for 5 min, followed by gradual cooling to room temperature. Fluorescence spectra were detected by RF-5301PC spectrofluorophotometer (Shimadzu, Japan) at room temperature. The spectra were recorded with 5 nm excitation and emission slit widths. […] For the fluorescence measurements between BMPQ-1 and different DNA sequences, the final concentrations of multimeric G-quadruplex forming oligonucleotides were 2 μM and other DNA oligonucleotides were 4 μM.

SMILES: Cc1ccc(Cn2cc3c(-c4ccc5c(c4)OCO5)nnc-3c3cc4c(cc32)OCO4)cc1 [BMPQ-1]
- ΔTm (°C) TTA (TTA): 8.4 °C
- binding [1]: yes
- binding [2]: weak
- IC50 (A549): 1.46 ± 0.16 µM
- IC50 (MGC-803): 2.36 ± 0.48 µM
- IC50 (HepG2): 2.14 ± 0.26 µM
- IC50 (HT29): 1.4 ± 0.06 µM
- co-localization between γH2AX foci and TRF2 (γH2AX foci in A549 cells): increase on the co-localization between γH2AX foci and TRF2 was observed with statistical significance
- average number of γH2AX foci in individual cells (γH2AX foci in A549 cells; compared with control): trebled
- fluorescence increase at 521 nm [3]: 10 fold
